Measurements as given in US10406136B2 (priority 2013, dated 2019).

Tests used:
[1] = molecular target: T1, neuraminidase (EC. 3.2.1.8, C. perfringens, SIGMA, N2876) (Clostridium perfringens, UniProt A0A0H2YQR1); assay type: biochemical; details: Lineweaver-Burk and Dixon plots
[2] = molecular target: T1, neuraminidase (EC. 3.2.1.8, C. perfringens, SIGMA, N2876); assay type: biochemical

T1 sequence (A0A0H2YQR1 1-694): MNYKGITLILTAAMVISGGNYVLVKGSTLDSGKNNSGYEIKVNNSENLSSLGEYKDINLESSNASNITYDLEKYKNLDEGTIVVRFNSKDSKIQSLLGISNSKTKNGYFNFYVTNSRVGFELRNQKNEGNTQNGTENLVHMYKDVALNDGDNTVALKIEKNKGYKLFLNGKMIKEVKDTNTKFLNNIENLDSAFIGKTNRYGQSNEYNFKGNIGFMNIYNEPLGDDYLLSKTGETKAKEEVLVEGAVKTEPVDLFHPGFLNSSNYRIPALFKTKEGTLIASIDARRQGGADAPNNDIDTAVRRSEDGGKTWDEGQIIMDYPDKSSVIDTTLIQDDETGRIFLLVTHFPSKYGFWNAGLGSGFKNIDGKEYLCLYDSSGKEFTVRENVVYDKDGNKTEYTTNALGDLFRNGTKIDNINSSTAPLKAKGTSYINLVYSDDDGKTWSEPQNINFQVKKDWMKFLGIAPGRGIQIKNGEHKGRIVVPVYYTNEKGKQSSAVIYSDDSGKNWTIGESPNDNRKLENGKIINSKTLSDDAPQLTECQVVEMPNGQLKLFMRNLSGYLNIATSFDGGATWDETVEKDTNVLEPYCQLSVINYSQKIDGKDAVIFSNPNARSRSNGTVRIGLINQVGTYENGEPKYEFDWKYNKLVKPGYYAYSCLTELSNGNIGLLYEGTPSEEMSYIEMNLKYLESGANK

SMILES	Inhibition (type) [1]	IC50 [2]
COc1cc(C2Oc3cc(O)c(C/C=C(\C)CCC=C(C)C)c(O)c3C(=O)[C@@H]2O)ccc1O (stereo partly shown) [Compound 1, 3′-O-methyldiplacol]	Competitive	–
COc1ccc(C2Oc3cc(O)c(C/C=C(\C)CCC=C(C)C)c(O)c3C(=O)[C@@H]2O)cc1O (stereo partly shown) [Compound 2, 4′-O-methyldiplacol]	Competitive	–
COc1cc(C2CC(=O)c3c(cc(O)c(C/C=C(\C)CCC=C(C)C)c3O)O2)ccc1O (stereo not shown) [Compound 4, 3′-O-methyldiplacone]	Competitive	–
COc1ccc(C2CC(=O)c3c(cc(O)c(C/C=C(\C)CCC=C(C)C)c3O)O2)cc1O (stereo not shown) [Compound 5, 4′-O-methyldiplacone]	Competitive	12.9 ± 0.4 µM
COc1c(O)cc(C2CC(=O)c3c(cc(O)c(C/C=C(\C)CCC=C(C)C)c3O)O2)cc1O (stereo not shown) [Compound 6, 6-geranyl-3′,5,5′,7-tetrahydroxy-4′-methoxyflavanone]	Competitive	–
CC(C)=CCC/C(C)=C/Cc1c(O)cc2c(c1O)C(=O)CC(c1ccc(O)cc1)O2 (stereo not shown) [Compound 7, mimulone]	Competitive	–
CC(C)=CCC/C(C)=C/Cc1c(O)cc2c(c1O)C(=O)CC(c1ccc(O)c(O)c1)O2 (stereo not shown) [Compound 8, diplacone]	Competitive	0.11 ± 0.003 µM
COc1cc(C2CC(=O)c3c(cc(O)c(C/C=C(\C)CCC=C(C)C)c3O)O2)cc(OC)c1O (stereo not shown) [Compound 9, 6-geranyl-4′,5,7-trihydroxy-3′,5′-dimethoxyflavanone]	Competitive	–
